IC50 data for four compounds are collected here from patent US6479487B1, “6, 9-disubstituted 2-[trans-(4-aminocyclohexyl)amino] purines” (Aventis Pharmaceuticals Inc., priority 1998, dated 2002).

Values joined by “and” are separate entries in the source; they are usually repeats but may differ in a detail not shown here. Identical values can stand only once. Counter-ions that a name gives are not always drawn. Like-named read-outs stand apart in the source and are kept apart here.

The subject of one experiment is MDA-MB-435. Put plainly: In vitro tumor cell proliferation, MDA-MB-435. Type of experiment: cell-based. Particulars: values given with an undefined *, read-out: In vitro Tumor Cell Proliferation (IC50, μM) Breast MDA-MB-435. In short, it runs like this:
(§1)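 Tumor cells were seeded overnight at 37° C, then exposed to drug diluted in culture medium for 3 days, refed with fresh drug-containing medium and kept 4 more days. Cells were fixed with 10% trichloroacetic acid and stained with 0.4% sulforhodamine B; alternatively, CyQUANT read proliferation after 3 days' drug exposure.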

The next experiment concerns PC-3. Kind of experiment: In vitro tumor cell proliferation, PC-3. It is filed as cell-based, human. Conditions: many values given with an undefined *, read-out: In vitro Tumor Cell Proliferation (IC50, μM) Prostate PC-3. In short, it runs like this: as §1
The subject of another experiment is Colo-205. Kind of experiment: In vitro tumor cell proliferation, Colo-205. It is filed as cell-based. Conditions: values given with an undefined *, read-out: In vitro Tumor Cell Proliferation (IC50, μM) Colon Colo-205. The gist of the method: as §1
Another experiment concerns the target T1, cdk2/cyclin E (Homo sapiens, UniProt P24941).
T1 construct: made in house; host or cells: insect cells (baculovirus co-infection)
Kind of experiment: Cyclin-Dependent Kinase 2 Assay (cdk2/cyclin E, GST-Rb substrate). Particulars: recombinant cdk2/cyclin E, 10 μM ATP, 30 min at 30° C., several values in a cell = separate determinations, read-out: CDK-2 Inhibition IC50. It is filed as biochemical. The method, then: Substrate: GST-Rb as described above for cdk4/cyclin D1
Assay conditions for cdk2/cyclin E were identical to those for cdk4/cyclin D1 including the substrate. The concentration of recombinant cdk2/cyclin E in the assay was 0.1 μg per 100 μl assay. Incubation was for 30 min at 30° C.

The test system of a further experiment is MDA-MB-231. Kind of experiment: In vitro tumor cell proliferation, MDA-MB-231. Conditions: sulforhodamine B or CyQUANT assay, many values given with an undefined *, read-out: In vitro Tumor Cell Proliferation (IC50, μM) Breast MDA-MB-231. It is filed as cell-based, human. In short, it runs like this: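 Proliferation quantified by SRB staining of TCA-fixed cells after 3 days of drug plus 4 days with replenished drug, following overnight attachment at 37 °C.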

The subject of a further experiment is A549. Put plainly: In vitro tumor cell proliferation, A549. It is filed as cell-based, human. Conditions: many values given with an undefined *, read-out: In vitro Tumor Cell Proliferation (IC50, μM) Lung A549. The gist of the method: as §1
A further experiment deals with T2, cdk4/cyclin D1 (Homo sapiens, UniProt P11802).
T2 construct: made in house; host or cells: Sf9 insect cells (Bac-to-Bac baculovirus, pFastBac)
Put plainly: Cyclin-dependent Kinase 4 Assay (cdk4/cyclin D1, GST-Rb substrate). Type of experiment: biochemical. Particulars: cdk4/cyclin D1 insect cell lysate, 10 μM ATP, 30 min at 37° C., several values = separate determinations, read-out: CDK4 Inhibition IC50. In short, it runs like this:
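IC50 against cdk4 measured by scintillation counting of bead-bound GST-Rb (0.5 μg) after filtration and four TNEN washes. Reaction was 30 min at 37 °C in HEPES pH 7.5 buffer with 10 mM MgCl2 and 1 mM EGTA. Enzyme source was 0.1 μg Sf9 lysate coinfected with cdk4 and cyclin D1.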

The subject of another experiment is DMS-114. Put plainly: In vitro tumor cell proliferation, DMS-114. Particulars: many values given with an undefined *, read-out: In vitro Tumor Cell Proliferation (IC50, μM) Lung DMS-114. It is filed as cell-based, human. In short, it runs like this:
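Human small cell lung carcinoma DMS-114 cells plated overnight, then drug-treated for 3 days, medium and drug renewed, and incubated 4 more days. Growth read by sulforhodamine B staining after TCA fixation; alternatively by CyQUANT after 3 days' drug exposure and freezing at −80 °C.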

A further experiment relates to DU145. Put plainly: In vitro tumor cell proliferation, DU145. It is filed as cell-based, human. Conditions: many values given with an undefined *, read-out: In vitro Tumor Cell Proliferation (IC50, μM) Prostate DU145. The gist of the method:
as §1

For another experiment, the system named is HT-29. Put plainly: In vitro tumor cell proliferation, HT-29. Type of experiment: cell-based, human. Particulars: many values given with an undefined *, read-out: In vitro Tumor Cell Proliferation (IC50, μM) Colon HT-29. In short, it runs like this: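 Growth was quantified either with CyQUANT, plates frozen at −80° C after 3 days of drug, or by sulforhodamine B staining of TCA-fixed cells after 3 days of drug plus 4 days with fresh drug. Trypan blue-excluding HT-29 cells were plated overnight at 37° C before dosing.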

The mark [1] stands for this setting: Homo sapiens, MDA-MB-435, MDA-MB-435.
[2] abbreviates: Homo sapiens, COLO 205, Colo-205.
[3] abbreviates: Homo sapiens, MDA-MB-231, MDA-MB-231.

T2 sequence (P11802 whole entry): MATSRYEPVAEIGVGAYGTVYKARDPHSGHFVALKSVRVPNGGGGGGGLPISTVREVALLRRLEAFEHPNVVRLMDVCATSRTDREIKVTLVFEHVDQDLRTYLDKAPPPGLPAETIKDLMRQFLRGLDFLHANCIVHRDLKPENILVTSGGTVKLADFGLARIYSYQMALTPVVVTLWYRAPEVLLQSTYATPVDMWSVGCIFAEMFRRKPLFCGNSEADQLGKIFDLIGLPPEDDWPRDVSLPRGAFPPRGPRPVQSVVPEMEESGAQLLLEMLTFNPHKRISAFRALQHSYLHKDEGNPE
T2 sequence (P24385 whole entry partner): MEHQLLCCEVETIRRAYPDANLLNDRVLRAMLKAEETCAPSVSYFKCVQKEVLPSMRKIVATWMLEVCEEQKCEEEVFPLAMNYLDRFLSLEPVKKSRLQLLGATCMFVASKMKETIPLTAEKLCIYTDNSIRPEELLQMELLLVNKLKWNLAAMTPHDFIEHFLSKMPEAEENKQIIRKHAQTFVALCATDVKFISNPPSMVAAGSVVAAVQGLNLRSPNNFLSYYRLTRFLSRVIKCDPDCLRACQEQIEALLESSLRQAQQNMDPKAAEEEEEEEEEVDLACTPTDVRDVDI

Regarding `N[C@H]1CC[C@H](Nc2nc(NC3CCN(Cc4ccc(C(F)(F)F)cc4C(F)(F)F)CC3)c3ncn(C4CCCC4)c3n2)CC1` [Example 147-aa, 2-[Trans-(4-aminocyclohexyl)amino]-6-[4-[1-(2,4-bis-trifluoromethylbenzyl)]piperidinylamino]-9-cyclopentylpurine trihydrochloride], the IC50 in the experiment on MDA-MB-435 (MDA-MB-435, trihydrochloride) is 5.8 µM and 4.9 µM; in the experiment with PC-3 (PC-3, trihydrochloride), 3.8 µM and 4.6 µM; in the experiment with Colo-205 (Colo-205, trihydrochloride), 4 µM and 2.9 µM; on cdk2/cyclin E (trihydrochloride) it was 1600 nM and 2600 nM; with MDA-MB-231 (MDA-MB-231, trihydrochloride), 2.5 µM and 3.1 µM; in the experiment on A549 (A549, trihydrochloride), 4.1 µM and 3.6 µM. Also, the IC50 at cdk4/cyclin D1 (trihydrochloride) is 10000 nM and 8400 nM; in the experiment on DMS-114 (DMS-114, trihydrochloride) it was 2.7 µM and 2.9 µM; in the experiment on DU145 (DU145, trihydrochloride) it was 4.4 µM and 4.3 µM; in the experiment on HT-29 (HT-29, trihydrochloride) it was 2.8 µM and 2.3 µM.

With `N[C@H]1CC[C@H](Nc2nc(NC3CCN(Cc4ccccc4OC(F)(F)F)CC3)c3ncn(C4CCCC4)c3n2)CC1` [Example 147-ab, 2-[Trans-(4-aminocyclohexyl)amino]-6-[4-[1-(2-trifluoromethoxybenzyl)]piperidinylamino]-9-cyclopentylpurine trihydrochloride], the IC50 is 0.84 µM in the experiment with MDA-MB-435 (setting [1]); 0.91 µM in the experiment on MDA-MB-435 (MDA-MB-435, trihydrochloride); 0.69 µM in the experiment with PC-3 (Homo sapiens, PC-3, PC-3); 0.45 µM in the experiment on Colo-205 (Colo-205, trihydrochloride); 0.43 µM in the experiment with Colo-205 (setting [2]); 250 nM and 900 nM on cdk2/cyclin E. Further, the IC50 in the experiment with MDA-MB-231 (setting [3]) was 0.62 µM; in the experiment on MDA-MB-231 (MDA-MB-231, trihydrochloride), 0.7 µM; with A549 (A549, trihydrochloride) it was 0.39 µM; in the experiment with A549 (Homo sapiens, A549, A549), 0.33 µM; at cdk4/cyclin D1 it was 4500 nM and 2700 nM; in the experiment with DMS-114 (DMS-114, trihydrochloride), 0.64 µM. For the same compound, the IC50 in the experiment with DMS-114 (Homo sapiens, DMS-114, DMS-114) is 0.74 µM; in the experiment with DU145 (DU145, trihydrochloride) it was 0.6 µM; in the experiment with DU145 (Homo sapiens, DU-145, DU145), 0.59 µM; with HT-29 (HT-29, trihydrochloride), 0.62 µM; with HT-29 (Homo sapiens, HT-29, HT-29), 0.73 µM.

In the case of `N[C@H]1CC[C@H](Nc2nc(NCC3CCN(Cc4ccccc4)CC3)c3ncn(C4CCCC4)c3n2)CC1` [Example 147-ac, 2-[Trans-(4-aminocyclohexyl)amino]-6-[4-(1-benzyl)piperidinylmethylamino]-9-cyclopentylpurine trihydrochloride], the IC50 with MDA-MB-435 (setting [1]) amounted to 0.97 µM; in the experiment on MDA-MB-435 (MDA-MB-435, trihydrochloride), 1.1 µM; in the experiment on PC-3 (Homo sapiens, PC-3, PC-3) it was 0.78 µM; in the experiment with PC-3 (PC-3, trihydrochloride), 0.82 µM; in the experiment on Colo-205 (Colo-205, trihydrochloride), 0.66 µM; with Colo-205 (setting [2]), 0.61 µM. Further, the IC50 was 170 nM and 370 nM and 530 nM and 400 nM on cdk2/cyclin E; 0.79 µM in the experiment on MDA-MB-231 (setting [3]); 0.75 µM with MDA-MB-231 (MDA-MB-231, trihydrochloride); 0.62 µM in the experiment with A549 (A549, trihydrochloride); 0.47 µM in the experiment with A549 (Homo sapiens, A549, A549); 3300 nM and 1200 nM on cdk4/cyclin D1. Besides, the IC50 was found to be 1 µM in the experiment with DMS-114 (DMS-114, trihydrochloride); 1.4 µM in the experiment on DMS-114 (Homo sapiens, DMS-114, DMS-114); 0.66 µM in the experiment with DU145 (DU145, trihydrochloride); 0.71 µM with DU145 (Homo sapiens, DU-145, DU145); 0.93 µM with HT-29 (HT-29, trihydrochloride); 1 µM in the experiment with HT-29 (Homo sapiens, HT-29, HT-29).

With `N[C@H]1CC[C@H](Nc2nc(NC3CCN(Cc4cccc(Oc5ccccc5)c4)CC3)c3ncn(C4CCCC4)c3n2)CC1` [Example 147-ad, 2-[Trans-(4-aminocyclohexyl)amino]-6-[4-[1-(3-phenoxybenzyl)]piperidinylamino]-9-cyclopentylpurine trihydrochloride], the IC50 in the experiment with MDA-MB-435 (setting [1]) is 0.87 µM; with MDA-MB-435 (MDA-MB-435, trihydrochloride) it was 1 µM; with PC-3 (Homo sapiens, PC-3, PC-3) it was 0.48 µM; in the experiment on PC-3 (PC-3, trihydrochloride), 0.86 µM; in the experiment with Colo-205 (Colo-205, trihydrochloride) it was 0.58 µM; in the experiment on Colo-205 (setting [2]), 0.53 µM. Moreover, the IC50 was 280 nM and 190 nM on cdk2/cyclin E; 0.64 µM in the experiment on MDA-MB-231 (setting [3]); 0.43 µM in the experiment on A549 (A549, trihydrochloride); 0.39 µM in the experiment on A549 (Homo sapiens, A549, A549); 3000 nM and 3200 nM at cdk4/cyclin D1; 0.62 µM with DMS-114 (DMS-114, trihydrochloride). Further, the IC50 was 0.82 µM in the experiment on DMS-114 (Homo sapiens, DMS-114, DMS-114); 0.62 µM in the experiment on DU145 (DU145, trihydrochloride); 0.54 µM in the experiment with DU145 (Homo sapiens, DU-145, DU145); 0.7 µM in the experiment with HT-29 (HT-29, trihydrochloride); 0.79 µM with HT-29 (Homo sapiens, HT-29, HT-29).
